This note sets out measurements from paper PMC8623168, “Evaluation of Amyloid Polypeptide Aggregation Inhibition and Disaggregation Activity of A-Type Procyanidins” (Pharmaceuticals, 2021).

Holding throughout (format): biochemical
Test [1] concerns the target T1, hIAPP (human islet amyloid polypeptide) (Homo sapiens, UniProt P10997).
T1 construct: gene IAPP; mature peptide of 37 residues (34-70 of the precursor, recalled), bought from KareBay Biochem; aggregating peptide, monomer to fibril
T1 sequence (P10997 34-70): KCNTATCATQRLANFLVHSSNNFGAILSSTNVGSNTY
Kind of test: thioflavin-T fluorescence, aggregation inhibition. As to conditions: read-out: IC50 (Aβ/hIAPP, μM) ^a. The source says:
thioflavin-T fluorescence, aggregation inhibition on hIAPP (human islet amyloid polypeptide)

Test [2] addresses T2, Aβ42 (amyloid-β; Aβ) (Homo sapiens, UniProt P05067).
T2 construct: gene APP; Abeta42 peptide of 42 residues (672-713 of APP, recalled); cut from amyloid precursor protein; aggregating peptide, monomer to fibril
The test is described as follows: thioflavin-T fluorescence, aggregation inhibition. Conditions: read-out: IC50 (Aβ/hIAPP, μM) ^a. The source says:
thioflavin-T fluorescence, aggregation inhibition on Aβ42 (amyloid-β; Aβ)

The target in test [3] is T1, hIAPP (human islet amyloid polypeptide). Kind of test: thioflavin-T fluorescence, disaggregation of preformed aggregates. Conditions: read-out: EC50 (Aβ/hIAPP, μM) ^a. The source says:
thioflavin-T fluorescence, disaggregation of preformed aggregates on hIAPP (human islet amyloid polypeptide)

Test [4] addresses T2, Aβ42 (amyloid-β; Aβ). The test is described as above. As to conditions: read-out: EC50 (Aβ/hIAPP, μM) ^a. The source says: thioflavin-T fluorescence, disaggregation of preformed aggregates on Aβ42 (amyloid-β; Aβ)

The structures appear in SMILES notation.

T2 sequence (P05067 672-713): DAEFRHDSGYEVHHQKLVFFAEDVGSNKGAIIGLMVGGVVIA

For `Oc1cc(O)c2c(c1)O[C@@]1(c3ccc(O)c(O)c3)Oc3cc4c(c(O)c3[C@@H]2[C@H]1O)C[C@H](O)[C@@H](c1ccc(O)c(O)c1)O4` [compound 4, 4], the IC50 in test [1] is 16.8 µM; in test [2] it was 5.7 µM.
On to `Oc1cc(O)c2c(c1)O[C@@]1(c3ccc(O)c(O)c3)Oc3cc(O)c4c(c3[C@@H]2[C@H]1O)O[C@H](c1ccc(O)c(O)c1)[C@H](O)C4` [compound 1, procyanidin A2], for which the IC50 in test [1] came out at 8.4 µM; in test [2], 4.8 µM. The EC50 turned out to be 5.4 µM in test [3] and 3.3 µM in test [4].
For `Oc1cc(O)c2c(c1)O[C@@]1(c3ccc(O)c(O)c3)Oc3cc4c(c(O)c3[C@@H]2[C@H]1O)C[C@@H](O)[C@@H](c1ccc(O)c(O)c1)O4` [compound 3, proanthocyanidin A6] the same measures were 16.4 µM, 4.2 µM, 4.9 µM and 23 µM.
For `COc1cc(OC)c2c(c1)O[C@@]1(c3ccc(OC)c(OC)c3)Oc3cc(OC)c4c(c3[C@@H]2[C@H]1O)O[C@H](c1ccc(OC)c(OC)c1)[C@H](O)C4` [compound 7, 7] the same measures were more than 100 µM, more than 100 µM, more than 100 µM and more than 100 µM.
Regarding `Oc1cc(O)c2c(c1)O[C@H](c1ccc(O)c(O)c1)[C@@H](O)C2` [compound 9, (+)-catechin], the IC50 in test [1] worked out at 40.9 µM; in test [2] it was 56.8 µM.
Turning to `Oc1cc(O)c2c(c1)O[C@@]1(c3ccc(O)c(O)c3)Oc3c4c(cc(O)c3[C@@H]2[C@H]1O)O[C@H](c1ccc(O)c(O)c1)[C@H](O)C4` [compound 5, proanthocyanidin A7], the IC50 in test [1] was 13.4 µM; in test [2], 2.4 µM. The results for the EC50 in test [3] and in test [4] were 15.8 µM and 8.9 µM, respectively.
For `Oc1cc(O)c2c(c1)O[C@H](c1ccc(O)c(O)c1)[C@H](O)C2` [compound 8, (−)-epicatechin], in that order: 38.9 µM, 41.7 µM, 12.2 µM and 12.9 µM.
In the case of `O=C(O[C@@H]1Cc2c(O)cc(O)cc2O[C@@H]1c1cc(O)c(O)c(O)c1)c1cc(O)c(O)c(O)c1` [EGCG, reference compound], the figures for the IC50 in test [1] and in test [2] were 1.1 µM and 3.8 µM, respectively. Moreover, the EC50 in test [3] is 3.7 µM; in test [4], 5 µM.
Take `Oc1cc(O)c2c(c1)O[C@@]1(c3ccc(O)c(O)c3)Oc3c4c(cc(O)c3[C@@H]2[C@H]1O)O[C@H](c1ccc(O)c(O)c1)[C@@H](O)C4` [compound 6, 6]: the IC50 in test [1] is 11.6 µM; in test [2], 6.8 µM.
